# Like-named read-outs stand apart in the source and are kept apart here.
# Key:
# [1] = system: L. major; experiment: ChEMBL dataset of pIC50 values against L. major used for the RF model (Table S1); type: cell-based, Leishmania major; note: call rule not given here
# Text: From the ChEMBL database (https://www.ebi.ac.uk/chembl/, accessed on 10 January 2021), we selected a diverse set of 1085 structures that were initially classified according to their predicted activity against L. major.
# Excluding these structures minimized the differences in activity values resulting from errors and differences in experimental protocols. […] Standardizer software [JChem, version 16.11.28 (2016), calculation module developed by ChemAxon, https://www.chemaxon.com/, accessed on 20 January 2021] was used to canonize all simplified molecular-input line-entry system (SMILES) codes. After duplicate structures were removed, those with higher pIC50 values were eliminated, facilitating the generation of more restrictive models.
# [2] = system: L. major; parameters: method as in ChEMBL; conditions: ref ChEMBL, cited from earlier work
# [3] = Active/Inactive class assigned to the ChEMBL pIC50 value for Random forest model construction, ref ChEMBL
# [4] = ChemBL structures with pIC50 values used for Random forest model construction, L. major
# [5] = Active/Inactive class assigned to ChemBL structures for Random forest model construction (Table S1)
# [6] = ChemBL structures with pIC50 values used for Random forest model construction (Table S1)
SMILES,"Outcome [1, 3]","pIC50 Value [2, 4]","Outcome [1, 5]","pIC50 Value [2, 6]"
O/N=C1/c2ccccc2OC(c2cccc(Cl)c2)C1n1ccnc1 (stereo not drawn) [CHEMBL4088885],Inactive,4.58,–,–
CCN1CSC(=S)N(CC)C1 [CHEMBL1571763],Inactive,4.42,–,–
O=C(CCl)n1c2ccccc2c2ccccc21 [CHEMBL1651449],Inactive,4.00,–,–
COc1ccccc1-c1nnc(-c2ccc(C(=O)N/N=C/c3cc(O)ccc3O)cc2)o1 [CHEMBL4059674],–,–,Active,5.35
Cc1ccsc1C(=O)/C=C/c1cc2cccc(C)c2nc1Cl [CHEMBL1940862],–,–,Active,5.54
COc1ccccc1-c1nnc(-c2ccc(C(=O)N/N=C/c3ccccc3C)cc2)o1 [CHEMBL4072556],Inactive,4.47,–,–
COc1ccccc1-c1nnc(-c2ccc(C(=O)N/N=C/c3ccc(O)cc3)cc2)o1 [CHEMBL4085064],Active,5.13,–,–
C[C@]12CC[C@H](O)C[C@@H]1CC[C@@H]1[C@@H]2CC[C@@]2(C)[C@H]1CC[C@@H]2[C@@](C)(O)c1ccncc1 [CHEMBL1214241],Inactive,4.92,–,–
c1ccc(-c2nc3cnccn3c2-c2ccncc2)cc1 [CHEMBL3634356],Inactive,4.70,–,–
CCOC(=O)C1=C(C)NC(=S)NC1c1cccc(O)c1 (stereo not drawn) [CHEMBL236789],–,–,Active,5.65
COc1cccc2c(-c3ccc(O)c4c3CC(C)(C)N=C4)ccc(O)c12 [CHEMBL1277993],Inactive,4.00,–,–
COc1ccccc1C(=O)N/N=C/c1ccc(Cl)cc1 [CHEMBL2382045],Inactive,4.16,–,–
CCCCCCN(C)c1ccc(Nc2c3ccccc3nc3ccccc23)cc1 [CHEMBL415472],–,–,Active,6.52
O=[N+]([O-])c1ccc(-c2nnc(N3CCCCC3)s2)s1 [CHEMBL191691],Inactive,3.82,–,–
Cc1ccc2cc(C3CC(c4cc(C)sc4C)=NN3)c(Cl)nc2c1 (stereo not drawn) [CHEMBL2236139],–,–,Active,5.67
CC1=C2C(=O)c3c(O)ccc(O)c3CC2(C)CCC1=O (stereo not drawn) [CHEMBL255104],Inactive,3.52,–,–

SMILES,"Outcome [1, 3]","pIC50 Value [2, 4]","Outcome [1, 5]","pIC50 Value [2, 6]"
COc1ccc(/C=N\NC(N)=S)cc1OCc1cn(CC(=O)c2ccc(Cl)cc2)nn1 [CHEMBL4163696],–,–,Active,5.77
NCCNCCc1ccc(Nc2c3ccccc3nc3ccccc23)cc1 [CHEMBL89150],–,–,Active,6.15
O=[N+]([O-])c1ccc(-c2nnc(N3CCOCC3)s2)o1 [CHEMBL365770],Active,5.28,–,–
CN(C)c1ccc(Nc2c3ccccc3nc3ccccc23)cc1 [CHEMBL34941],–,–,Active,6.05
CC(C)(C)c1ccc(CN2CCN(c3ccnc4cc(Cl)ccc34)CC2)cc1 [CHEMBL1256730],Inactive,4.21,–,–
O=C(c1cccc(Cl)c1)N1CCN(c2nnc(-c3ccc([N+](=O)[O-])o3)s2)CC1 [CHEMBL458527],Inactive,4.88,–,–
Cc1ccc(N2NC(=O)/C(=C/c3cc4c(cc3Cl)OCO4)C2=O)cc1C [CHEMBL1256889],Inactive,4.52,–,–
COc1cc(OC)c2c(C)[n+](-c3ccc(C#N)cc3)c(C)cc2c1.O=C([O-])C(F)(F)F [CHEMBL481906],Inactive,4.00,–,–
COc1cc2c(c(OC)c1)C(C)N(c1ccc(C(C)C)cc1)C(C)C2 (stereo not drawn) [CHEMBL481808],Inactive,4.30,–,–
Cc1ccc2cc(C3CC(c4sccc4Cl)=NN3)c(Cl)nc2c1 (stereo not drawn) [CHEMBL2236140],–,–,Active,5.67
COc1ccccc1-c1nnc(-c2ccc(C(=O)N/N=C/c3cccnc3)cc2)o1 [CHEMBL4090822],Inactive,4.33,–,–
c1ccc(-c2nc3ccccn3c2-c2cccnc2)cc1 [CHEMBL2151869],Inactive,4.65,–,–
O=C(CBr)N1c2ccccc2Oc2ccc(Cl)cc21 [CHEMBL3759174],Inactive,4.00,–,–
Cc1ccc2cc(/C=C/C(=O)c3ccc(Cl)s3)c(Cl)nc2c1 [CHEMBL1940856],–,–,Active,5.63
COc1ccc(CN2CN(CC(=O)O)CSC2=S)cc1OC [CHEMBL4291183],Inactive,4.81,–,–
CCOC(=O)C1=C(COCCN)NC(C)=C(C(=O)OC)C1c1ccccc1Cl (stereo not drawn) [CHEMBL1491],–,–,–,5.47

# From paper PMC8196580, “Identification of Kaurane-Type Diterpenes as Inhibitors of Leishmania Pteridine Reductase I” (Molecules, 2021)
